Measured values taken from US12653811B2 (CLOSED LOOP MEDICINE LTD, priority 2020, dated 2026).

Experiments:
[1] = system: patients with primary hypertension and inadequate BP control; test: Precision dosing trial of amlodipine with home blood pressure and e-diary side effects (Example 1)
[2] = cited from earlier work

For CCOC(=O)C1=C(COCCN)NC(C)=C(C(=O)OC)C1c1ccccc1Cl (stereo not shown) [amlodipine], the “toxic related side effects leading to treatment discontinuation” value ([1]; during the trial to date) was “no toxic related side effects leading to treatment discontinuation were observed”, the “end mean DBP” value ([1]; end of study, baseline mean DBP 88 mmHg, 109 patients begun, 39 completed, linear mixed model estimate) was 81 mmHg and the “end mean SBP” value ([1]; end of study, baseline mean SBP 146 mmHg, 109 patients begun, 39 completed, linear mixed model estimate) was 133 mmHg. The “side effects (oedema) by VAS score” value ([1]; single patient, final dose of 10 mg, VAS 0-100 scale (1-25 mild, 26-50 moderate)) was “mild to moderate”, the “dose linearity of pharmacokinetics” value ([2]; FIG. 1, Williams et al 1988) was “linear across a wide range of doses” and the “increase in total exposure” value ([2]; elderly) was “up to 60%”. For the same molecule, the “variance in average amlodipine blood levels between subjects” value ([2]; steady-state, same dose) was “up to 30%”.
